Experiments:
Format in all cases: cell-based
Details in all cases: after 10, 20, 40 and 60 minutes at all dilutions 1:100, 1:200, 1:400, 1:800
Staphylococcus aureus = assay: Antimicrobial screening by agar dilution, Staphylococcus aureus
Method: (§1) The antimicrobial properties of the 4-[4,5-bis(4-bromophenyl)-1-hexyl-1H-imidazol-2-yl]isoquinolin-3-ol was studied by the method of agar dilution. Test solutions of each compound was prepared in concentration of 1% using dimethylformamide as a solvent then they are diluted in physiological solution to obtain the final experimental dilutions 1:100, 1:200, 1:400, 1:800. The effect of these substances are compared with furacillin in a controlled study. The testing microbes used were gram positive bacteria Staphylococcus aureus, gram negative bacteria Pseudomonas aeruginosa and Escherichia coli and Candida albicans fungi were taken. The experiments used for this survey were meat-pentonlu agar (EPA) for cultivation of bacteria and Saburo environment for fungi. Each experiment used 1 ml of test solution on each plate 500 min. Add 2 drops of emulsified with microbes feel. All experimental samples were taken from the agar after 10, 20, 40, 60 minutes in the environment on the basis of Patrk planted. Bacteria were cultivated at a temperature of 37° C. for 1 day and the mushroom was kept in a thermostat for […] at a temperature of 28° C. in the. Then results were checked.

Escherichia coli = assay: Antimicrobial screening by agar dilution, Escherichia coli
Method: as §1

Pseudomonas aeruginosa = assay: Antimicrobial screening by agar dilution, Pseudomonas aeruginosa
Method: as §1

Candida albicans = assay: Antimicrobial screening by agar dilution, Candida albicans
Method: as §1

Measured: inhibition activity (in words)

CCCCCCn1c(-c2c(O)ncc3ccccc23)nc(-c2ccc(Br)cc2)c1-c1ccc(Br)cc1 [4-[4,5-bis(4-bromophenyl)-1-hexyl-1H-imidazol-2-yl]isoquinolin-3-ol]
highest inhibition activity: Staphylococcus aureus | Escherichia coli | Pseudomonas aeruginosa | Candida albicans
